Entries after “also recorded” stand apart in the source; their conditions may differ.
System: HUVEC+(IL-4 and histamine)
Experiment: BioMAP 4H system
Assay type: cell-based, human
Details: Th2 vascular inflammation, tofacitinib 37-1000 nM
Text: The BioMAP systems consist of human primary cell-based systems designed to model different aspects of the human body in an in vitro format. The 12 systems tested characterized the test compounds across a broad set of systems modeling various human disease states. BioMAP systems were constructed with one or more primary cell types from healthy human donors, with stimuli (such as cytokines or growth factors) added to capture relevant signaling networks that naturally occur in human tissue or pathological conditions. Vascular biology was modeled in both a Th1 (3C system) and a Th2 (4H system) inflammatory environment, as well as in a Th1 inflammatory state specific to arterial smooth muscle cells (CASM3C system). […]
Systems were derived from either single cell types or co-culture systems. […] Test agents were prepared in DMSO (final concentration <0.1%) and were added 1 hour before stimulation, and remained in culture for 24 hours or as otherwise indicated (48-hrs, MyoF system; 72-hrs, BT system (soluble readouts); 168-hrs, BT system (secreted IgG)). […] Soluble factors from supernatants were quantified using either HTRF® detection, bead-based multiplex immunoassay or capture ELISA. Overt adverse effects of test agents on cell proliferation and viability (cytotoxicity) were detected by sulforhodamine B (SRB) staining, for adherent cells, and alamarBlue® reduction for cells in suspension.

C[C@@H]1CCN(C(=O)CC#N)C[C@@H]1N(C)c1ncnc2[nH]ccc12 [tofacitinib, 3-((3R,4R)-4-Methyl-3-(methyl(7H-pyrrolo[2,3-d]pyrimidin-4-yl)amino)piperidin-1-yl)-3-oxopropanenitrile] was tested. Which “Inhibition of biomarker readouts in the 4H system” value did it give?
The value was “MCP-1 and Eto3 and VCAM-1 and P-selectin”.

What about the “Inhibition of biomarker readouts in the 4H system” value (listed as Tofacitinib) of the same compound?
Its value is “active over all tested concentrations; also recorded: MCP-1, Eot3, VCAM-1, P-selectin”.
